According to patent US6673938B1, “Substituted pyridine herbicides” (Syngenta Participations AG, priority 1998, dated 2004):

Columns and labels:
[1] = test system: Monocotyledonous and dicotyledonous test plants; assay: Herbicidal action before emergence of the plants (pre-emergence action); type: in vivo; conditions: 2000 g/ha, evaluated after 3 weeks, nine-step scale
How it was run: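 Sprayed onto soil immediately after sowing as WP suspension or EC emulsion at 2 kg or 250 g a.i./ha (500 l water/ha). Greenhouse growth for 3 weeks, then scored on a nine-step scale (1 = complete damage, 9 = no effect).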

[2] = test system: Monocotyledonous and dicotyledonous test plants; assay: Post-emergence herbicidal action; type: in vivo; conditions: 2000 g/ha, sprayed in 4- to 6-leaf stage, evaluated after approximately 18 days, nine-step scale
How it was run: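 Scoring uses a 1–9 scale (1 complete damage, 9 no effect), read roughly 18 days post-application. Compounds were applied post-emergence at 4–6 leaves, as aqueous suspension (25% wettable powder) or emulsion (25% emulsion concentrate), at 250 g or 2 kg a.i./ha in 500 l water/ha.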

SMILES	melting point	pre-emergence action, Cyperus [1]	pre-emergence action, Ipomoea [1]	pre-emergence action, Setaria [1]	pre-emergence action, Sinapis [1]	pre-emergence action, Solanum [1]	pre-emergence action, Stellaria [1]	Post-emergence action, Ipomoea [2]	Post-emergence action, Lolium [2]	Post-emergence action, Setaria [2]	Post-emergence action, Sinapis [2]	Post-emergence action, Solanum [2]	Post-emergence action, Stellaria [2]
Cc1nc(C(F)(F)F)ccc1C(=O)C1=C(O)CCCC1=O [Compound A2-B1, 3-hydroxy-2-(2-methyl-6-trifluoromethylpyridine-3-carbonyl)cyclohex-2-enone]	90 to 92 °C	2	2	1	2	2	1	1	2	1	1	1	2
Cc1nc(C(F)(F)F)ccc1C(=O)C1=C(O)C(C)(C)CCC1=O [Compound A2-B24, 3-Hydroxy-4,4-dimethyl-2-(2-methyl-6-trifluoromethylpyridine-3-carbonyl)cyclohex-2-enone]	75 to 76 °C	1	1	1	2	1	1	1	2	2	1	2	2
Cc1nc(C(F)(F)F)ccc1C(=O)C1=C(O)C(C)(C)C(=O)C(C)(C)C1=O [Compound A2-B354, 5-hydroxy-2,2,6,6-tetramethyl-4-(2-methyl-6-trifluoromethylpyridine-3-carbonyl)cyclohex-4-ene-1,3-dione]	139 to 140 °C	1	1	1	1	1	2	2	2	2	2	2	2
Cc1nc(C(F)(F)F)ccc1C(=O)C1=C(S(=O)(=O)c2ccccc2)CCCC1=O [Compound A2-B1104, 3-Benzenesulfonyl-2-(2-methyl-6-trifluoromethylpyridine-3-carbonyl)cyclohex-2-enone]	165 to 167 °C												
Cc1nc(C(F)(F)F)ccc1C(=O)C1=C(Cl)C(C)(C)C(=O)C(C)(C)C1=O [Compound A2-B1105, 5-Chloro-2,2,6,6-tetramethyl-4-(2-methyl-6-trifluoromethylpyridine-3-carbonyl)cyclohex-4-ene-1,3-dione]	119 °C												
COC(=O)C1(C)CCC(=O)C(C(=O)c2ccc(C(F)(F)Cl)nc2C)=C1O (stereo not shown) [Compound A94-B34, methyl 3-[6-(chlorodifluoromethyl)-2-methylpyridine-3-carbonyl]-2-hydroxy-1-methyl-4-oxocyclohex-2-enecarboxylate]	108 to 110 °C												
CC1(C)C(=O)C(C(=O)c2ccc(C(F)(F)F)nc2CBr)=C(Cl)C(C)(C)C1=O [Compound A1029-B1105, 4-(2-Bromomethyl-6-trifluoromethylpyridine-3-carbonyl)-5-chloro-2,2,6,6-tetramethylcyclohex-4-ene-1,3-dione]	94.5 to 95 °C												
